Measured values: PubChem BioAssay (NCI)
Where “and” joins values, the source holds several entries; their conditions need not be identical. Equal values may be shown once.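 Step 1: Grow cells in 96-well plates. Step 2: Expose to compound for 48 hours at 5 concentrations. Step 3: Interpolate endpoints linearly; if unreached, use highest concentration. GI50 marks 50% less growth. At the TGI there is no net growth.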

Experiments:
Experiment in all cases: DTP human tumour cell line panel, 48 h
[1] = test system: OVCAR-3 ovarian
[2] = test system: NCI-H23 lung
[3] = test system: SN12C renal
[4] = test system: RXF 393 renal
[5] = test system: UACC-62 melanoma
[6] = test system: IGROV1 ovarian
[7] = test system: SK-MEL-28 melanoma
[8] = test system: HL-60(TB) leukemia
[9] = test system: ACHN renal
[10] = test system: M14 melanoma

Row | SMILES | TGI [1] | TGI [2] | TGI [3] | TGI [4] | TGI [5] | TGI [6] | TGI [7] | TGI [8] | TGI [9] | TGI [10] | GI50 [1] | GI50 [2] | GI50 [3] | GI50 [4] | GI50 [5] | GI50 [6] | GI50 [7] | GI50 [8] | GI50 [9] | GI50 [10]
1 | N#CC(C(=O)C(=O)NCCCNC(=O)C(=O)C(C#N)c1ccccc1)c1ccccc1 (stereo unspecified) | > 100 µM | > 100 µM | > 100 µM | > 100 µM | > 100 µM | > 100 µM | > 100 µM | > 100 µM | > 100 µM | > 100 µM |  |  |  |  |  |  |  |  |  | 
2 | Cc1cc2c3ccccc3n(C)c2c2c1C(=O)C=CC2=O | 28.3 µM | 27.4 µM | 35.9 µM | 20.5 µM | 32.4 µM | 36.8 µM | 42.7 µM | > 68 µM | 41.7 µM | 31.9 µM |  |  |  |  |  |  |  |  |  | 
3 | COC(=O)CNC(=O)[C@@H](OC)[C@@H]1Cc2cc3cc(OC4CC(OC5CC(O)C(O)C(C)O5)C(O)C(C)O4)c(C)c(O)c3c(O)c2C(=O)[C@H]1OC1CC(OC2CC(OC3CC(C)(O)C(O)C(C)O3)C(O)C(C)O2)C(O)C(C)O1 (stereo partly specified) | 4.27 µM | > 50 µM | > 50 µM | 0.355 µM | 0.26 µM | > 50 µM | 1.03 µM | 49.1 µM | 6.94 µM | 2.4 µM | 0.204 µM | 0.15 µM | 0.138 µM | 0.0877 µM | 0.0536 µM | 0.192 µM | 0.11 µM | 1.08 µM | 0.19 µM | 0.239 µM
4 | CC1OC2CC(=O)OC2C2=C1C(=O)c1c(O)c3c(c(O)c1C2=O)C1CC(O)C3(O)C(C)O1 (stereo unspecified) | 0.629 µM | 1.55 µM | 0.539 µM | 2.51 µM | 2.13 µM | 1.7 µM | 2.74 µM | 1.06 µM | 10.4 µM | 0.662 µM | 0.207 µM | 0.414 µM | 0.211 µM | 1.2 µM | 0.734 µM | 0.329 µM | 1.21 µM | 0.234 µM | 0.555 µM | 0.242 µM
5 | CN(C)CCCN1CCc2c([nH]c3ccccc23)C1c1cccnc1 (stereo unspecified) | > 100 µM | > 100 µM | > 100 µM | > 100 µM | > 100 µM | > 100 µM | > 100 µM | > 100 µM | > 100 µM | > 100 µM |  |  |  |  |  |  |  |  |  | 
6 | C=C1CC[C@@H]2[C@](C)(COC(C)=O)[C@H](OC(C)=O)CC[C@@]2(C)[C@@H]1CC(Nc1ccc(S(=O)(=O)Nc2nccc(C)n2)cc1)C1=CCOC1=O (stereo partly specified) | 3.36 µM | 16 µM | 6.17 µM | 4.18 µM | 7.13 µM | 13.6 µM | 10.1 µM | 5.63 µM | 13 µM | 10.8 µM | 1.76 µM | 3.78 µM | 2.64 µM | 2.33 µM | 2.38 µM | 3.62 µM | 2.83 µM | 2.1 µM | 3.64 µM | 2.81 µM
7 | Cc1ccc(C(O)c2cnc(C)n2Cc2ccccc2)cc1 (stereo unspecified) | > 100 µM | > 100 µM | > 100 µM | > 100 µM | > 100 µM | > 100 µM | > 100 µM | > 100 µM | > 100 µM | > 100 µM |  |  |  |  |  |  |  |  |  | 
8 | Cc1cc(=O)oc2cc3c(cc12)Oc1ccccc1O3 | > 100 µM | > 100 µM | > 100 µM | > 100 µM | > 100 µM | > 100 µM | > 100 µM | > 10 µM | > 100 µM | > 100 µM |  |  |  |  |  |  |  |  |  | 
9 | CCOc1ccc(NCc2cc(OC)c(OC)c(OC)c2)cc1 | 1.65 µM and 2.22 µM | 31.4 µM and 39.3 µM | > 100 µM |  | > 100 µM | > 84 µM | > 100 µM | 19.2 µM and 33.8 µM | > 100 µM | > 100 µM |  |  | 1.41 µM and 7.91 µM | 2.24 µM |  |  |  |  |  | 
10 | CCc1cc(O)c(Cl)c(C)c1Cl | 33.5 µM | 36.9 µM | 29.5 µM | 28.7 µM | 35.1 µM | 33.8 µM | 36.6 µM | > 100 µM | 31.5 µM | 63.6 µM |  |  |  |  |  |  |  |  |  | 
11 | OCCCCCCOc1ccc(-c2cc(-c3ccccn3)nc(-c3ccccn3)c2)cc1 | 1.32 µM | 9.05 µM | 3.02 µM | 0.853 µM | 0.933 µM | 2.7 µM | 2.72 µM | 0.514 µM | 5.22 µM | 4.3 µM |  |  |  |  |  |  |  |  |  | 
12 | COc1cccc(C2c3cc4c(cc3OC(O)(CO)C2C(=O)O)OCO4)c1 (stereo unspecified) (tested in a mixture with another compound) | > 100 µM | > 100 µM | > 100 µM | > 100 µM | > 100 µM | > 100 µM | 79.8 µM | 75.4 µM | > 100 µM | > 100 µM |  |  |  |  |  |  |  |  |  | 
13 | CCCCN(Cc1ccc(F)cc1)c1ccc(CO)c(Cl)c1 | 12.9 µM | 26.3 µM | 25.3 µM | 21.1 µM | 4.84 µM | 3.49 µM | 28.4 µM | 34 µM | 29.7 µM | 34.6 µM | 3.74 µM | 11.8 µM | 12.5 µM | 7.16 µM | 0.903 µM | 0.677 µM | 14.8 µM | 14.1 µM | 15.4 µM | 17.5 µM
14 | COc1ccc(NC(=O)c2cc(OC)c(OC)c(OC)c2)cc1 | > 100 µM | > 91.9 µM | > 100 µM | 94.3 µM | > 100 µM | > 100 µM | 94.4 µM | 68 µM | > 100 µM | > 100 µM |  |  |  |  |  |  |  |  |  | 
15 | CC(=O)[O-].CC(=O)[O-].[NH2-].[Pt+2].c1ccc2cnccc2c1 | > 100 µM | > 100 µM | > 100 µM | 24 µM | > 100 µM | > 100 µM | > 100 µM | 87.5 µM | 13.4 µM | > 100 µM | 42.2 µM | 47.7 µM | 28.6 µM | 0.0522 µM | 30.3 µM | 24.6 µM | 52.6 µM | 9.62 µM | 2.26 µM | 59.1 µM
16 | CN(CCOc1ccc(C#N)cc1)CCOc1ccc(C#N)cc1 | > 100 µM | > 100 µM | > 100 µM | > 100 µM | > 100 µM | 24.7 µM | > 100 µM | > 100 µM | > 100 µM | > 100 µM | 29.8 µM | 22.6 µM | > 100 µM | 46.8 µM | > 100 µM | 1.66 µM | > 100 µM | 20.7 µM | 41.5 µM | 78.9 µM
